Assays:
mouse TAAR1 = mouse TAAR1 (Mus musculus (Mouse), UniProt Q923Y8); experiment: Radioligand binding assay on mouse TAAR1; settings: mouse TAAR1, membranes of stably transfected HEK-293 cells; first value of the pair; read-out: Ki (μM) mouse/rat: mouse
Method: (§1) For the construction of expression plasmids the coding sequences of human, rat and mouse TAAR 1 were amplified from genomic DNA essentially as described by Lindemann et al.. The Expand High Fidelity PCR System (Roche Diagnostics) was used with 1.5 mM Mg^2+ and purified PCR products were cloned into pCR2.1-TOPO cloning vector (Invitrogen) following the instructions of the manufacturer. PCR products were subcloned into the pIRESneo2 vector (BD Clontech, Palo Alto, Calif.), and expression vectors were sequence verified before introduction in cell lines.
(§2) For the generation of stably transfected cell lines HEK293 cells were transfected with the pIRESneo2 expression plasmids containing the TAAR coding sequences (described above) with Lipofectamine 2000 (Invitrogen) according to the instructions of the manufacturer, and 24 hrs post transfection the culture medium was supplemented with 1 mg/ml G418 (Sigma, Buchs, Switzerland). After a culture period of about 10 d clones were isolated, expanded and tested for responsiveness to trace amines (all compounds purchased from Sigma) with the cAMP Biotrak Enzyme immunoassay (EIA) System (Amersham) following the non-acetylation EIA procedure provided by the manufacturer.
Radioligand Binding Assay on Mouse TAAR1
(§3) Membrane Preparation and Radioligand Binding.
(§4) Cells were released from culture flasks using trypsin/EDTA, harvested, washed twice with ice-cold PBS (without Ca^2+ and Mg^2+), pelleted at 1,000 rpm for 5 min at 4° C., frozen and stored at −80° C. Frozen pellets were suspended in 20 ml HEPES-NaOH (20 mM, pH 7.4) containing 10 mM EDTA and homogenized with a Polytron (PT 6000, Kinematica) at 14′000 rpm for 20 s. The homogenate was centrifuged at 48,000×g for 30 min at 4° C. Subsequently, the supernatant was removed and discarded, and the pellet resuspended in 20 ml HEPES-NaOH (20 mM, pH 7.4) containing 0.1 mM EDTA using the Polytron (20 s at 14′000 rpm). This procedure was repeated and the final pellet resuspended in HEPES-NaOH containing 0.1 mM EDTA and homogenized using the Polytron. Typically, aliquots of 2 ml membrane portions were stored at −80° C. With each new membrane batch the dissociation constant (Kd) was determined via a saturation curve. […] Nonspecific binding was defined as the amount of ^3[H]—(S)-4-[(ethyl-phenyl-amino)-methyl]-4,5-dihydro-oxazol-2-ylamine bound in the presence of 10 μM unlabeled ligand. All compounds were tested at a broad range of concentrations (10 pM to 10 μM) in duplicates. […] The 96 deep well plates were incubated for 1 hr at 4° C. Incubations were terminated by rapid filtration through Unifilter-96 plates (Packard Instrument Company) and glass filters GF/C (Perkin Elmer) presoaked for 1 hr in polyethylenimine (0.3%) and washed 3 times with 1 ml of cold binding buffer. After addition of 45 μl of Microscint 40 (PerkinElmer) the Unifilter-96 plate was sealed and after 1 hr the radioactivity counted using a TopCount Microplate Scintillation Counter (Packard Instrument Company).

rat TAAR1 = rat TAAR1 (Rattus norvegicus (Rat), UniProt Q923Y9); experiment: Radioligand binding assay on rat TAAR1; settings: rat TAAR1, membranes of stably transfected HEK-293 cells; second value of the pair; read-out: Ki (μM) mouse/rat: rat
Method: as §1, §2
Radioligand Binding Assay on Rat TAAR1
as §3
as §4, with “1′000” for “1,000”, “48′000×g” for “48,000×g”

rat TAAR1, sequence (Q923Y9 whole entry): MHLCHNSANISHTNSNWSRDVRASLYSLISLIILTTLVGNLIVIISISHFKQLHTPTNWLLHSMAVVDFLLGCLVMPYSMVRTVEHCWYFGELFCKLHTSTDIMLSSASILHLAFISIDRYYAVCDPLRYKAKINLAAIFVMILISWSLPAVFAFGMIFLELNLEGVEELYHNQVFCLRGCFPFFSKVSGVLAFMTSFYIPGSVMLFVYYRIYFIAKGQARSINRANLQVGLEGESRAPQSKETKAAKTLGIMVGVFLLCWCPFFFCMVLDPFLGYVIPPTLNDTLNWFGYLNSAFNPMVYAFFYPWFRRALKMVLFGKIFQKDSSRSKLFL
mouse TAAR1, sequence (Q923Y8 whole entry): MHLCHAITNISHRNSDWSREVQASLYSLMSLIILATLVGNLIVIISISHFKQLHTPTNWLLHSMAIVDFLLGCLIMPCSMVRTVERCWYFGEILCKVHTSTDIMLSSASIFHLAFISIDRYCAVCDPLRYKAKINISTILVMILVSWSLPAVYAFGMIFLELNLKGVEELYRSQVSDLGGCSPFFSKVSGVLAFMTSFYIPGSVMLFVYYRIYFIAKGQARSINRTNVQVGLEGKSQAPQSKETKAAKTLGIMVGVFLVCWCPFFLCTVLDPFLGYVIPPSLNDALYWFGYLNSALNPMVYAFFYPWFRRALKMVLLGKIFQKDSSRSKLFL

O=C(Nc1ccc([C@@H]2CNCCO2)nc1)c1ccc(C(F)(F)F)cc1 [Example 33, N-[6-[(2S)-Morpholin-2-yl]-3-pyridyl]-4-(trifluoromethyl)benzamide]
Ki (mouse TAAR1): 0.0056 µM | Ki (rat TAAR1): 0.052 µM

FC(F)(F)c1cccc(Nc2ccc([C@H]3CNCCO3)nc2)n1 [Example 50, N-[6-[(2R)-Morpholin-2-yl]-3-pyridyl]-6-(trifluoromethyl)pyridin-2-amine]
Ki (mouse TAAR1): 0.005 µM | Ki (rat TAAR1): 0.122 µM

CCOc1n[nH]c(C(=O)Nc2ccc(C3CNCCO3)nc2)c1Cl (racemic) [Example 74, (RS)-4-Chloro-3-ethoxy-N-(6-morpholin-2-yl-3-pyridyl)-1H-pyrazole-5-carboxamide]
Ki (rat TAAR1): 0.066 µM

CCc1n[nH]c(C(=O)Nc2ccc([C@@H]3CNCCO3)nc2)c1Br [Example 78, 4-Bromo-3-ethyl-N-[6-[(2S)-morpholin-2-yl]-3-pyridyl]-1H-pyrazole-5-carboxamide]
Ki (mouse TAAR1): 0.0056 µM | Ki (rat TAAR1): 0.041 µM

O=C(Nc1cnc(C2CNCCO2)nc1)c1ccc(Cl)cc1 (racemic) [Example 72, (RS)-4-Chloro-N-(2-morpholin-2-ylpyrimidin-5-yl)benzamide]
Ki (mouse TAAR1): 0.0058 µM | Ki (rat TAAR1): 4.93 µM

CC(C)Cc1cc(C(=O)Nc2ccc([C@@H]3CNCCO3)nc2)[nH]n1 [Example 88, 3-Isobutyl-N-[6-[(2S)-morpholin-2-yl]-3-pyridyl]-1H-pyrazole-5-carboxamide]
Ki (mouse TAAR1): 0.0113 µM | Ki (rat TAAR1): 0.011 µM

CCCc1n[nH]c(C(=O)Nc2ccc([C@H]3CNCCO3)nc2)c1F [Example 85, 4-Fluoro-N-[6-[(2R)-morpholin-2-yl]-3-pyridyl]-3-propyl-1H-pyrazole-5-carboxamide]
Ki (mouse TAAR1): 0.0046 µM | Ki (rat TAAR1): 0.15 µM

O=C(Nc1ccc([C@@H]2CNCCO2)nc1)c1cccc(C(F)(F)F)c1 [Example 35, N-[6-[(2S)-Morpholin-2-yl]-3-pyridyl]-3-(trifluoromethyl)benzamide]
Ki (mouse TAAR1): 0.0056 µM | Ki (rat TAAR1): 0.0107 µM

CCCc1n[nH]c(C(=O)Nc2cnc(C3CNCCO3)c(Cl)c2)c1Cl (racemic) [Example 108, (RS)-4-Chloro-N-(5-chloro-6-morpholin-2-yl-3-pyridyl)-3-propyl-1H-pyrazole-5-carboxamide]
Ki (mouse TAAR1): 0.0241 µM

CCc1ncc(C(=O)Nc2ccc([C@H]3CNCCO3)nc2)cn1 [Example 57, 2-Ethyl-N-[6-[(2R)-morpholin-2-yl]-3-pyridyl]pyrimidine-5-carboxamide]
Ki (mouse TAAR1): 0.673 µM | Ki (rat TAAR1): 2.4 µM

CCc1n[nH]c(C(=O)Nc2ccc([C@@H]3CNCCO3)nc2)c1Cl [Example 76, 4-Chloro-3-ethyl-N-[6-[(2S)-morpholin-2-yl]-3-pyridyl]-1H-pyrazole-5-carboxamide]
Ki (mouse TAAR1): 0.0063 µM | Ki (rat TAAR1): 0.0384 µM

O=C(Nc1ccc([C@@H]2CNCCO2)nc1)c1[nH]nc(C2CC2)c1Br [Example 81, 4-Bromo-3-cyclopropyl-N-[6-[(2S)-morpholin-2-yl]-3-pyridyl]-1H-pyrazole-5-carboxamide]
Ki (mouse TAAR1): 0.006 µM | Ki (rat TAAR1): 0.0152 µM

CCCc1n[nH]c(C(=O)Nc2ccc([C@H]3CNCCO3)nc2)c1Cl [Example 59, 4-Chloro-N-[6-[(2R)-morpholin-2-yl]-3-pyridyl]-3-propyl-1H-pyrazole-5-carboxamide]
Ki (mouse TAAR1): 0.0063 µM | Ki (rat TAAR1): 0.021 µM

O=C(Nc1ccc([C@H]2CNCCO2)nc1)c1[nH]nc(C2CC2)c1Cl [Example 60, 4-Chloro-3-cyclopropyl-N-[6-[(2R)-morpholin-2-yl]-3-pyridyl]-1H-pyrazole-5-carboxamide]
Ki (mouse TAAR1): 0.0096 µM | Ki (rat TAAR1): 0.0448 µM

FC(F)(F)c1ccc(Nc2ccc([C@@H]3CNCCO3)nc2)cn1 [Example 22, 6-[(2S)-Morpholin-2-yl]-N-[6-(trifluoromethyl)-3-pyridyl]pyridin-3-amine]
Ki (mouse TAAR1): 0.0126 µM | Ki (rat TAAR1): 0.247 µM

CCOc1n[nH]c(C(=O)Nc2ccc([C@H]3CNCCO3)nc2)c1Cl [Example 100, 4-Chloro-3-ethoxy-N-[6-[(2R)-morpholin-2-yl]-3-pyridyl]-1H-pyrazole-5-carboxamide]
Ki (rat TAAR1): 0.123 µM

O=C(Nc1ccc([C@@H]2CNCCO2)nc1)c1[nH]nc(OCC(F)(F)F)c1Cl [Example 105, 4-Chloro-N-[6-[(2S)-morpholin-2-yl]-3-pyridyl]-3-(2,2,2-trifluoroethoxy)-1H-pyrazole-5-carboxamide]
Ki (rat TAAR1): 0.0176 µM

O=C(Nc1ccc([C@H]2CNCCO2)nc1)c1cccc(Cl)c1 [Example 52, 3-Chloro-N-[6-[(2R)-morpholin-2-yl]-3-pyridyl]benzamide]
Ki (rat TAAR1): 0.0922 µM

CCOc1n[nH]c(C(=O)Nc2ccc([C@@H]3CNCCO3)nc2)c1Cl [Example 106, 4-Chloro-3-ethoxy-N-[6-[(2S)-morpholin-2-yl]-3-pyridyl]-1H-pyrazole-5-carboxamide]
Ki (rat TAAR1): 0.137 µM

O=C(Nc1ccc([C@H]2CNCCO2)nc1)c1ccnc(C(F)(F)F)c1 [Example 54, N-[6-[(2R)-Morpholin-2-yl]-3-pyridyl]-2-(trifluoromethyl)pyridine-4-carboxamide]
Ki (rat TAAR1): 0.283 µM

O=C(Nc1ccc([C@H]2CNCCO2)nc1)c1[nH]nc(OCC(F)(F)F)c1Cl [Example 101, 4-Chloro-N-[6-[(2R)-morpholin-2-yl]-3-pyridyl]-3-(2,2,2-trifluoroethoxy)-1H-pyrazole-5-carboxamide]
Ki (rat TAAR1): 0.0225 µM

O=C(Nc1ccc([C@@H]2CNCCO2)nc1)c1ccnc(C(F)(F)F)c1 [Example 34, N-[6-[(2S)-Morpholin-2-yl]-3-pyridyl]-2-(trifluoromethyl)pyridine-4-carboxamide]
Ki (rat TAAR1): 0.147 µM

O=C(Nc1ccc(C2CNCCO2)nc1)c1cccc(Cl)c1 (racemic) [Example 12, (RS)-3-Chloro-N-(6-morpholin-2-yl-3-pyridyl)benzamide]
Ki (rat TAAR1): 0.0889 µM

O=C(Nc1ccc(C2CNCCO2)nc1)c1ccnc(C(F)(F)F)c1 (racemic) [Example 16, (RS)—N-(6-Morpholin-2-yl-3-pyridyl)-2-(trifluoromethyl)pyridine-4-carboxamide]
Ki (rat TAAR1): 0.145 µM

FC(F)(F)c1ccc(Nc2cnc(C3CNCCO3)c(Cl)c2)nc1 (racemic) [Example 103, (RS)-5-Chloro-6-morpholin-2-yl-N-[5-(trifluoromethyl)-2-pyridyl]pyridin-3-amine]
Ki (rat TAAR1): 0.122 µM

O=C(Nc1ccc([C@@H]2CNCCO2)nc1)c1cccc(Cl)c1 [Example 32, 3-Chloro-N-[6-[(2S)-morpholin-2-yl]-3-pyridyl]benzamide]
Ki (rat TAAR1): 0.0338 µM

O=C(Nc1ccc(C2CNCCO2)nc1)c1[nH]nc(OCC(F)(F)F)c1Cl (racemic) [Example 75, (RS)-4-Chloro-N-(6-morpholin-2-yl-3-pyridyl)-3-(2,2,2-trifluoroethoxy)-1H-pyrazole-5-carboxamide]
Ki (rat TAAR1): 0.0133 µM

Fc1cc(Nc2ccc(Cl)cn2)cnc1C1CNCCO1 (racemic) [Example 110, (RS)—N-(5-Chloro-2-pyridyl)-5-fluoro-6-morpholin-2-yl-pyridin-3-amine]
Ki (rat TAAR1): 1.1 µM

Source: US9840501B2, “Morpholin-pyridine derivatives” (Hoffmann-La Roche Inc., priority 2014, dated 2017)
